Results reported in ChEMBL document CHEMBL1629637, “In vitro activities of tigecycline, minocycline, and colistin-tigecycline combination against multi- and pandrug-resistant clinical isolates of Acinetobacter baumannii group” (Antimicrob Agents Chemother, 2009).
≈ marks a conversion by molar mass, not a printed value.

Key:
[1] = test system: Acinetobacter baumannii; assay: Antibacterial activity against colistin-resistant Acinetobacter baumannii clinical isolates by broth microdilution method; format: functional
[2] = test system: Acinetobacter baumannii; assay: Antibacterial activity against colistin-susceptible Acinetobacter baumannii clinical isolates by broth microdilution method; format: functional
[3] = test system: Acinetobacter baumannii; assay: Antibacterial activity against extensively drug-resistant Acinetobacter baumannii clinical isolates assessed as percent susceptible isolates by broth microdilution method; format: functional
[4] = test system: Acinetobacter baumannii; assay: Antibacterial activity against imipenem-susceptible Acinetobacter baumannii clinical isolates assessed as percent susceptible isolates by broth microdilution method; format: functional
[5] = test system: Acinetobacter baumannii; assay: Antibacterial activity against colistin-resistant Acinetobacter baumannii clinical isolates assessed as percent susceptible isolates by broth microdilution method; format: functional
[6] = test system: Acinetobacter baumannii; assay: Antibacterial activity against all antibiotic-resistant Acinetobacter baumannii clinical isolates assessed as percent susceptible isolates by broth microdilution method; format: functional
[7] = test system: Acinetobacter baumannii; assay: Antibacterial activity against colistin-susceptible Acinetobacter baumannii clinical isolates assessed as percent susceptible isolates by broth microdilution method; format: functional
[8] = Cmax in human serum at […], iv bolus dose followed by dose regimen of […] every 12 hrs; format: ADME, organism-based; set-up: route intravenous
[9] = test system: Acinetobacter baumannii; assay: Antibacterial activity against extensively drug-resistant Acinetobacter baumannii clinical isolates by broth microdilution method; format: functional
[10] = test system: Acinetobacter baumannii; assay: Antibacterial activity against pandrug-resistant Acinetobacter baumannii clinical isolates by broth microdilution method; format: functional
[11] = test system: Acinetobacter baumannii; assay: Antibacterial activity against imipenem-susceptible Acinetobacter baumannii clinical isolates by broth microdilution method; format: functional
[12] = Acinetobacter baumannii, read-out: MIC90

| SMILES | MIC90 [1] | MIC90 [1, 12] | MIC50 [2] | MIC50 [3] | MIC90 [3] | MIC50 [4] | MIC90 [4] | Activity [5] | MIC50 [6] | MIC90 [6] | Activity [7] | Cmax [8] | MIC50 [9] | MIC90 [9] | MIC50 [10] | MIC90 [10] | MIC50 [11] | MIC90 [11] |
| --- | --- | --- | --- | --- | --- | --- | --- | --- | --- | --- | --- | --- | --- | --- | --- | --- | --- | --- |
| CN(C)c1ccc(O)c2c1C[C@H]1C[C@H]3[C@H](N(C)C)C(O)=C(C(N)=O)C(=O)[C@@]3(O)C(O)=C1C2=O [MINOCYCLINE] | 8 µg/mL (≈ 17.5 µM) | 16 µg/mL (≈ 35 µM) | 8 µg/mL (≈ 17.5 µM) | 8 µg/mL (≈ 17.5 µM) | 16 µg/mL (≈ 35 µM) | 4 µg/mL (≈ 8.74 µM) | 8 µg/mL (≈ 17.5 µM) | 49.4% | 8 µg/mL (≈ 17.5 µM) | 16 µg/mL (≈ 35 µM) | 18% |  |  |  |  |  |  |  |
| CN(C)c1cc(NC(=O)CNC(C)(C)C)c(O)c2c1C[C@H]1C[C@H]3[C@H](N(C)C)C(O)=C(C(N)=O)C(=O)[C@@]3(O)C(O)=C1C2=O [TIGECYCLINE] |  | 2 µg/mL (≈ 3.41 µM) | 1 µg/mL (≈ 1.71 µM) |  |  |  |  |  |  |  |  | 630 ng/mL | 1 µg/mL (≈ 1.71 µM) | 2 µg/mL (≈ 3.41 µM) | 1 µg/mL (≈ 1.71 µM) | 2 µg/mL (≈ 3.41 µM) | 1 µg/mL (≈ 1.71 µM) | 2 µg/mL (≈ 3.41 µM) |
